Data: ChEMBL document CHEMBL4400530, “Synthesis and structure-activity relationship studies of water-soluble β-cyclodextrin-glycyrrhetinic acid conjugates as potential anti-influenza virus agents” (Eur J Med Chem, 2019)

What was measured:
Human alphaherpesvirus 1 [1] = experiment: Antiviral activity against […] Herpes simplex virus 1 KOS infected in African green monkey Vero cells assessed as reduction in viral titer after 72 hrs by crystal violet staining based assay; assay type: functional, organism-based; details: Human alphaherpesvirus 1, strain KOS
Human alphaherpesvirus 1 [2] = experiment: Antiviral activity against […] Herpes simplex virus 1 B2006 infected in African green monkey Vero cells assessed as reduction in viral titer after 72 hrs by crystal violet staining based assay; assay type: functional, organism-based; details: Human alphaherpesvirus 1, B2006, Vero

CC(O)CNC(=O)[C@@]1(C)CC[C@]2(C)CC[C@]3(C)C(=CC(=O)[C@@H]4[C@@]5(C)CC[C@H](O)C(C)(C)[C@@H]5CC[C@]43C)[C@@H]2C1 (some centres not stated)
EC50 (Human alphaherpesvirus 1 [1]): 4.95 µM
EC50 (Human alphaherpesvirus 1 [2]): 4.95 µM
